Laboratory results taken from paper PMC3948684, “Approaches to Improve the Oral Bioavailability and Effects of Novel Anticancer Drugs Berberine and Betulinic Acid” (PLoS ONE, 2014).

Experiments:
[1] = Oral pharmacokinetic study; type: in vivo, Sprague Dawley rats
Description: Rats were fasted overnight before the start of the experiments and randomly divided into two experimental groups. […] Pharmacokinetic parameters were analyzed using non-compartmental techniques with WinNonlin® 5.0 software (Pharsight Corporation, Mountain View, CA, USA). SHAM analysis (i.e., Slope, Height, Area, and Moment) utilized plasma concentration-time data to estimate the area under the curve (AUC), apparent terminal elimination rate constant (λz), terminal elimination half-life (t1/2) and the area under the first moment of the plasma concentration–time curve (AUMC). The AUC was calculated for each rat using the piecewise log trapezoidal areas and extrapolated to infinity by dividing λz into the last measured plasma concentration (i.e. Clast/λz). From the values of AUC0_0-∞ and AUMC0-∞, the clearance (CL), mean residence time (MRT) and volume of distribution at tissue equilibrium (Vss) were calculated based on noncompartmental monoexponential assumptions as: CL = Dose/AUC, MRT≅AUMC/AUC and Vss = CL×MRT. The noncompartmental parameters were calculated for each rat before averaging dose groups. The pharmacokinetic parameters such as AUC, Cmax, t1/2, tmax, MRT, etc were compared between the free drug and SD formulations.

A549 cells = assay: In vitro cytotoxicity, crystal violet staining; type: cell-based; conditions: Homo sapiens, BBR, 72 h exposure
Description: (§1) NSCLC cells A549 and H1650 were plated in 96 well plates at 10,000 cells/well density. After 24 h, cells were treated with various concentrations of BBR and BA. DMSO (0.1%) treated cells were considered as control cells. After 72 h treatment, cells were fixed in 0.25% gultaraldehyde and stained with 0.05% crystal violet staining. Percent of cell viability or cell kill was calculated by considering DMSO treated control cells as 100% viable (zero % cell kill).

H1650 cells = assay: In vitro cytotoxicity, crystal violet staining; type: cell-based; conditions: Homo sapiens, NCI-H1650; BBR, 72 h exposure
Description: as §1

survivin = assay: Western blot of orthotopic lung tumor lysates; type: in vivo, athymic Nu/nu mice; conditions: A549 tumors; densitometry
Description: (§2) Western blot analysis was performed to study the expression of Bcl-2, cleaved caspase 3, survivin, cyclin D1, p53, MMP-9, HIF-1α. The detailed procedure was given as Data S1.
(§3) B) Western blot analysis: western blot analysis was performed to study the expression of Bcl-2, cleaved caspase 3, survivin, cyclin D1, p53, MMP-9, HIF-1α. The detailed procedure was given in supplementary data. Protein was extracted from tumor tissues collected from untreated control and drug treated animals using RIPA lysis buffer (50mM Tris-HCL, pH 8.0, with 150 mM sodium chloride, 1.0% Igepal CA-630 (NP-40), 0.5% sodium deoxychlorate, and 0.1% sodium dodecyl sulfate) with protease inhibitor and 500 mM phenylmethylsulfonyl fluoride. Protein concentration was measured using BCA Protein Assay Reagent Kit (PIERCE, Rockford, IL). Equal amounts of supernatant protein (50 μg) was denatured by boiling for 5 min in SDS sample buffer, separated by 10% SDS-PAGE, transferred to nitrocellulose membranes for immunoblotting. Membranes were blocked with 5% skim milk in Tris-buffered saline with Tween 20 [10mM Tris-HCL (pH 7.6), 150 mM Nacl, and 0.5% Tween 20] and probed with antibodies against Bcl-2 (1:1000), cleaved caspase 3 (1:500), survivin (1:1000), cyclin D1(1:1000), p53 (1:1000), MMP-9 (1:1000), HIF-1α (1:1000) and β-actin (1:1000). Horseradish peroxidase-conjugated secondary antibodies (Santa Cruz Biotechnology, Santa Cruz, CA) were used. Proteins were visualized using enhanced chemiluminescent solution (Pierce, Rockford, IL) and exposed to Kodak X-OMAT AR autoradiography film (Eastman Kodak, Rochester, NY).

Bcl-2 = assay: Western blot of orthotopic lung tumor lysates; type: in vivo, athymic Nu/nu mice; conditions: A549 tumors; densitometry
Description: as §2, §3

p53 = assay: Western blot of orthotopic lung tumor lysates; type: in vivo, athymic Nu/nu mice; conditions: A549 tumors; densitometry
Description: as §2, §3

HIF-1α = assay: Western blot of orthotopic lung tumor lysates; type: in vivo, athymic Nu/nu mice; conditions: A549 tumors
Description: as §2, §3

cyclin D1 = assay: Western blot of orthotopic lung tumor lysates; type: in vivo, athymic Nu/nu mice; conditions: A549 tumors; densitometry
Description: as §2, §3

[2] = parameters: method as in PMID 16956957, PMID 20634337; conditions: oral ref 21, 22; cited from earlier work
VEGF = assay: Quantification of VEGF by ELISA; type: in vivo, athymic Nu/nu mice
Description: VEGF levels were estimated in plasma, tumor tissue homogenates by ELISA method. Tumors were homogenized in RIPA lysis buffer (20 mM Tris-HCl pH 7.5, 150 mM NaCl, 1% Triton X-100) containing proteinase inhibitors (Complete Proteinase Inhibitor Cocktail Tablets, Roche, Indianapolis. IN). Tissue debris was pelleted and the resulting supernatant was used in subsequent analysis. Total protein concentration was determined with a BCA protein assay (Pierce, Rockford, IL). VEGF concentrations were determined according to the manufacturer's instructions. A minimum of 3 tumors per group were analyzed in duplicate.

[3] = test system: A549 orthotopic lung tumors; assay: A549 orthotopic lung cancer model; type: in vivo, athymic Nu/nu mice; conditions: 100 mg/kg orally daily for 3 weeks
Description: A549 cells were grown in F12K Medium containing 10% FBS and standard antibiotic mix at 5% CO2 and 37°C. For orthotopic lung tumor model, mice were anesthetized with Isoflurane and a 5 mm skin incision was made to the left chest, 5 mm below the scapula. Hamilton syringes (1 ml) with 28-gauge hypodermic needles were used to inject the cell inoculums through the sixth intercostal space into the left lung. The needle was quickly advanced to a depth of 3 mm and quickly removed after the injection of the A549 cells (2 million/mouse) suspended in 100 µL PBS (pH 7.4) into the lung parenchyma. For metastatic lung tumor models H1650 cells (2 million in 100 µL PBS) were intravenously administered to mice via tail vein. […] Only cell suspensions of >95% viability as determined by tryphan blue exclusion were used. Wounds from the incisions were closed with surgical skin clips. […] Drug treatment was started 2 weeks after the tumor cell implantation. BBR free drug or SD formulation was given orally at the dose of 100 mg/kg daily for 3 weeks. […] Body weights were monitored throughout the study. Animal survival rates were recorded during the study. The lung weights and tumor volumes were used for assessment of therapeutic activity of the treatments. After sacrificing the animals lung weights and tumor nodules were recorded in metastatic tumor models.

[4] = Sprague Dawley, rat, plasma, po, 100 mg/kg orally

COc1ccc2cc3[n+](cc2c1OC)CCc1cc2c(cc1-3)OCO2.[Cl-] [BBR free drug, 5,6-dihydro-9,10-dimethoxy-benzo[g]-1,3-benzodioxolo[5,6-a]quinolizinium, chloride]
CL ([1]; 100 mg/kg orally): 2.034 ± 0.2813 mL/min/kg | AUMC (0-∞) ([1]; BBR, 100 mg/kg orally): 5619.03±651.24 ng.h^2/ml | Vss ([1]; BBR, 100 mg/kg orally): 1.04839 ± 0.10635 L/kg | half-life ([1]; Sprague Dawley, rat, plasma, po, 100 mg/kg, read-out: t½ (converted)): 5.95 ± 0.47 h | MRT [1, 4]: 6.85 ± 1.68 h | Tmax [1, 4]: 1.41 ± 0.67 h | AUC(0-inf) ([1]; Sprague Dawley, rat, plasma, po, BBR, 100 mg/kg orally): 819 ± 82 ng·h/mL | Cmax ([1]; Sprague Dawley, rat, po, BBR, 100 mg/kg orally, plasma): 147 ± 21.8 ng/mL | IC50 (A549 cells): 6.45 ± 0.46 µM | IC50 (H1650 cells): 8.39 ± 1.03 µM | survivin expression down regulated compared to control (survivin): 2.03 fold | beta actin relative Bcl-2 expression reduced compared to untreated control (Bcl-2): 2.79 fold | relative expression of p53 increased compared to untreated control (p53): 2.51 fold | HIF-1α expression (HIF-1α): significantly down regulated | cyclin D1 relative expression reduced compared to untreated control (cyclin D1): 1.02 fold | bioavailability [2]: less than 1% | VEGF levels in tumor lysates (VEGF; untreated control 284.71±42.84): 137.59±20.84 pg/mg protein | VEGF levels in serum (VEGF; untreated control 597.90±54.03): 315.41 ± 44.06 pg/mL | decrease in tumor volumes compared to untreated control [3]: 1.31 fold | lung tumor weights [3]: 385.77 ± 63.42 mg | reduced tumor weights compared to control tumors [3]: 1.40 fold
